Test results taken from article PMC6063804 (EJNMMI Research, 2018).
Several values for one entry are separate records, joined by “and”; a condition that tells them apart may be missing. Equal entries are not always repeated.

System: ion channel binding site of NMDA receptors
Test: [^18F]PK-209 brain PET, test–retest and kinetic modeling
Format: in vivo, human
Details: for K i: net influx rate, individual subjects S1–S5
Procedure: In total, 20 PET scans were acquired on a Gemini TF-64 PET/CT scanner (Philips Medical Systems, Cleveland, OH, USA). Five subjects underwent [^18F]PK-209 test–retest (TRT) scans 31–61 days apart over a period of 211 days. Another five subjects underwent baseline and ketamine scans 13–161 days apart over a period of 258 days. At the start of each scan [^18F]PK-209 was injected as an intravenous bolus with a mean injected activity of 187 ± 7 MBq. All scans were performed between 12:00 and 15:00 h to minimize diurnal variation. Duration of daylight on each scan day was calculated to investigate seasonal changes in tracer binding. Dynamic PET data were acquired for 120 min and binned into 25 time frames (1 × 15, 3 × 5, 3 × 10, 4 × 60, 2 × 150, 2 × 300, 10 × 600 s). PET was followed by a low-dose CT (30 mAs, 120 kVp) for attenuation correction and localization. Data were reconstructed using a three-dimensional row action maximum likelihood reconstruction algorithm (3-D RAMLA). Acquired PET data were normalized and corrected for dead time, randoms, scatter, attenuation, and decay.
Prior to the PET studies, structural three-dimensional coronal T1-weighted magnetic resonance images (MRI) were acquired for all subjects on a 1.5T Sonata scanner (Siemens Medical Solutions, Erlangen, Germany) with 160 coronal slices using echo time 3.97 ms, repetition time 2700 ms, flip angle 8°, and voxel size 1.0 × 1.5 × 1.0 mm^3. Subject motion was checked by visual inspection of the alignment of intrasubject PET frames, and no frames were excluded due to excessive movement. T1-weighted MRI scans were co-registered to an average of the PET frames from ~ 4–70 min p.i. using VINCI software. The co-registered MRI scans were segmented into gray matter (GM), white matter, and extra-cerebral fluid, using PVE-lab. Subsequently, 68 regions of interest (ROIs), including whole brain, were derived from the Hammers atlas and used to extract GM time-activity curves (TACs). As a last step, the TACs of 60 out of the 67 ROIs were redefined into nine volume-weighted ROIs by combining the radioactivity at each timepoint according to the equation Bq¯=∑iαi×Bqi/∑iαi , where αi is the volume (in mm^3) of region i, and Bqi the counts per mm^3 of region i. The selection of ROIs was based on the widespread NMDA-R availability in the brain: frontal, temporal, occipital, and parietal cortices; hippocampus; thalamus; insula; brainstem; dorsal striatum; and cerebellum, as well as whole brain GM from the Hammers atlas. Standardized uptake values (SUV; equalling measured activity divided by injected dose per body weight) were calculated for whole brain GM.
Using the metabolite-corrected arterial plasma input function, all GM TACs were fitted to single-tissue (1T2k), two-tissue irreversible (2T3k), and reversible (2T4k) compartmental models, both with and without an additional parameter for fractional blood volume (VB). The non-metabolite-corrected arterial whole blood curve was used as input function for VB. The optimal tracer kinetic model for describing in vivo kinetics of [^18F]PK-209 was determined according to the Akaike Information Criterion (AIC). Depending on the model preference, outcome measures were the net influx constant (Ki = K1 k3/(k2 + k3)) or the distribution volume (VT=K1/k2(1+k3/k4)) . For subsequent group level analysis (e.g., TRT variability and ketamine effects), all scans were analyzed using the same, most preferred, tracer kinetic model. Non-displaceable distribution volumes (VND = K1/k2) as well as K1 and k3 values are also reported separately.
The absolute percentage TRT variability of kinetic parameters between test and retest scans was calculated using the equation TRT variability = 2 · (ρretest − ρtest)/(ρtest + ρretest) · 100, where ρ is the kinetic parameter of interest. The between-subject coefficient of variation was calculated as the standard deviation divided by the sample mean · 100. […]

CSc1ccc(Cl)c(NC(=N)N(C)c2cccc(OC[18F])c2)c1 [[^18F]PK-209, 3-(2-chloro-5-(methylthio)phenyl)-1-(3-([^18F]fluoromethoxy)phenyl)-1-methylguanidine]
Mean test K i (2T3k_VB, population IF): 0.0152 min⁻¹ | Mean retest K i (2T3k_VB, single scan IF): 0.0143 min⁻¹ | Mean test K i (2T3k_VB, single scan IF): 0.0183 min⁻¹ | Mean retest K 1 (human, in vivo): 0.426 mL · cm^3 · min^−1 | Mean retest V ND (human, in vivo): 7.34 | Mean retest k 3 (human, in vivo): 0.0021 min⁻¹ | Mean test K 1 (human, in vivo): 0.473 mL · cm^3 · min^−1 | Mean test K i (human, in vivo): 0.0161 min⁻¹ | Mean test V ND (human, in vivo): 9.09 | Mean test k 3 (human, in vivo): 0.0021 min⁻¹ | peak uptake SUV (human, in vivo): 3.6-5.7 | time of peak uptake (human, in vivo): around 10 min | whole brain SUV90–120 (human, in vivo): 1.64 | brain activity as % of the peak (human, in vivo, 120 min): 25-40% | defluorination (radioactivity uptake in jaw and skull) (in vivo): no defluorination | K i (2T3k_VB, population IF, retest scan): 0.0201 min⁻¹ | K i (2T3k_VB, population IF, test scan): 0.0147 min⁻¹ and 0.0193 min⁻¹ | K i (2T3k_VB, single scan IF, retest scan): 0.0182 min⁻¹ and 0.0152 min⁻¹ | K i (2T3k_VB, within-subject IF, retest scan): 0.0162 min⁻¹ | K i (2T3k_VB, within-subject IF, test scan): 0.0118 min⁻¹ | whole brain SUV90–120 (test scans, average): 1.68
